Experiments:
Assay type in all cases: cell-based, human
A549/ATCC = experiment: NCI 60 five dose assay, Non-small cell lung cancer
NCI-H522 = experiment: NCI 60 five dose assay, Non-small cell lung cancer
HCT-15 = experiment: NCI 60 five dose assay, Colon cancer
HT29 [1] = experiment: NCI 60 five dose assay, Colon cancer
SF-268 = experiment: NCI 60 five dose assay, CNS cancer
SK-MEL-2 = experiment: NCI 60 five dose assay, Melanoma
UACC-257 = experiment: NCI 60 five dose assay, Melanoma
UACC-62 = experiment: NCI 60 five dose assay, Melanoma
OVCAR-5 = experiment: NCI 60 five dose assay, Ovarian cancer
NCI/ADR-RES = experiment: NCI 60 five dose assay, Ovarian cancer
PC-3 = experiment: NCI 60 five dose assay, Prostate cancer
DU-145 = experiment: NCI 60 five dose assay, Prostate cancer
MCF7 = experiment: NCI 60 five dose assay, Breast cancer
BT-549 = experiment: NCI 60 five dose assay, Breast cancer
HCT-116 = experiment: NCI 60 single dose screen, Colon cancer; settings: single dose 10 μM
Method: (§1) The newly synthesized pyrazoles 2a–g, 7a–d, 8a and b, 9, and 10 were submitted to the National Cancer Institute (NCI) Developmental Therapeutics Program (http://www.dtp.nci.nih.gov) for assessment of their potential antiproliferative activity against a panel of NCI 60 cancer cell lines. All compounds were approved for screening against the approved 60 cancer cell lines at a single dose of 10 μM. The human cancer cell lines were derived from 9 variant cancer types including leukemia, melanoma, lung, colon, CNS, ovarian, renal, prostate and breast cancers. The results are presented as percentage of growth inhibition (GI%) of the screened compounds against the full panel of cell lines.
(§2) Under sterile conditions, the cell lines were grown in RPMI 1640 media (Gibco, NY, USA) supplemented with 10% fetal bovine serum (Biocell, CA, USA), and […] cell/mL was used to test the growth inhibition activity of the synthesized compounds. The compounds with concentrations ranging from 0.01 to 100 μM were prepared in phosphate buffer saline. Each compound was initially solubilized in dimethyl sulfoxide (DMSO); however, each final dilution contained less than 1% DMSO. Solutions of different concentrations (0.2 mL) were pipetted into the separate well of a microtiter tray in duplicate. Cell culture (1.8 mL) containing a cell population of […] cells per mL was pipetted into each well. Controls, containing only phosphate buffer saline and DMSO at identical dilutions, were also prepared in the same manner. These cultures were incubated in a humidified incubator at 37 °C. The incubator was supplied with 5% CO2 atmosphere. After 48 h, the cells in each well were diluted 10 times with saline and counted using a Coulter counter. The counts were corrected for the dilution.[34]

HT29 [2] = experiment: NCI 60 single dose screen, Colon cancer; settings: single dose 10 μM
Method: as §1, §2

KM12 = experiment: NCI 60 single dose screen, Colon cancer; settings: single dose 10 μM
Method: as §1, §2

[3] = Homo sapiens, read-out: LC50 (the source's name)

CC(=NNc1ccc(S(N)(=O)=O)cc1)c1ccc(NN=C2C(=O)NN=C2Nc2ccccc2)cc1 [Compound 4, 4-(2-(1-(4-(2-(5-oxo-3-(phenylamino)-1,5-dihydro-4H-pyrazol-4-ylidene)hydrazinyl)phenyl)ethylidene)hydrazinyl)benzene sulfonamide]
GI50 (A549/ATCC; Homo sapiens): 19.4 µM | CC50 (A549/ATCC; [3]): > 100 µM | Percent Growth (A549/ATCC; Log10 Concentration -4.0 Molar): 7% | Percent Growth (A549/ATCC; Log10 Concentration -5.0 Molar): 67% | Percent Growth (A549/ATCC; Log10 Concentration -6.0 Molar): 100% | Percent Growth (A549/ATCC; Log10 Concentration -7.0 Molar): 108% | Percent Growth (A549/ATCC; Log10 Concentration -8.0 Molar): 100% | GI50 (NCI-H522; Homo sapiens): 2.17 µM | CC50 (NCI-H522; [3]): 74.8 µM | Percent Growth (NCI-H522; Log10 Concentration -4.0 Molar): -52% | Percent Growth (NCI-H522; Log10 Concentration -5.0 Molar): -36% | Percent Growth (NCI-H522; Log10 Concentration -6.0 Molar): 94% | Percent Growth (NCI-H522; Log10 Concentration -7.0 Molar): 97% | Percent Growth (NCI-H522; Log10 Concentration -8.0 Molar): 89% | GI50 (HCT-15; Homo sapiens): 5.29 µM | CC50 (HCT-15; [3]): 42.9 µM | Percent Growth (HCT-15; Log10 Concentration -4.0 Molar): -100% | Percent Growth (HCT-15; Log10 Concentration -5.0 Molar): 36% | Percent Growth (HCT-15; Log10 Concentration -6.0 Molar): 87% | Percent Growth (HCT-15; Log10 Concentration -7.0 Molar): 98% | Percent Growth (HCT-15; Log10 Concentration -8.0 Molar): 99% | GI50 (HT29 [1]; Homo sapiens, HT-29): 3.58 µM | CC50 (HT29 [1]; Homo sapiens, HT-29, read-out: LC50 (the source's name)): 34 µM | Percent Growth (HT29 [1]; Log10 Concentration -4.0 Molar): -100% | Percent Growth (HT29 [1]; Log10 Concentration -5.0 Molar): 7% | Percent Growth (HT29 [1]; Log10 Concentration -6.0 Molar): 104% | Percent Growth (HT29 [1]; Log10 Concentration -7.0 Molar): 117% | Percent Growth (HT29 [1]; Log10 Concentration -8.0 Molar): 100% | GI50 (SF-268; Homo sapiens): 2.22 µM | CC50 (SF-268; [3]): 31.5 µM | Percent Growth (SF-268; Log10 Concentration -4.0 Molar): -77% | Percent Growth (SF-268; Log10 Concentration -5.0 Molar): -23% | Percent Growth (SF-268; Log10 Concentration -6.0 Molar): 89% | Percent Growth (SF-268; Log10 Concentration -7.0 Molar): 95% | Percent Growth (SF-268; Log10 Concentration -8.0 Molar): 85% | GI50 (SK-MEL-2; Homo sapiens): 2.11 µM | CC50 (SK-MEL-2; [3]): 9.1 µM | Percent Growth (SK-MEL-2; Log10 Concentration -4.0 Molar): -96% | Percent Growth (SK-MEL-2; Log10 Concentration -5.0 Molar): -56% | Percent Growth (SK-MEL-2; Log10 Concentration -6.0 Molar): 101% | Percent Growth (SK-MEL-2; Log10 Concentration -7.0 Molar): 104% | Percent Growth (SK-MEL-2; Log10 Concentration -8.0 Molar): 98% | GI50 (UACC-257; Homo sapiens): 3.97 µM | CC50 (UACC-257; [3]): 75.5 µM | Percent Growth (UACC-257; Log10 Concentration -4.0 Molar): -59% | Percent Growth (UACC-257; Log10 Concentration -5.0 Molar): 17% | Percent Growth (UACC-257; Log10 Concentration -6.0 Molar): 99% | Percent Growth (UACC-257; Log10 Concentration -7.0 Molar): 93% | Percent Growth (UACC-257; Log10 Concentration -8.0 Molar): 89% | GI50 (UACC-62; Homo sapiens): 1.96 µM | CC50 (UACC-62; [3]): 9.6 µM | Percent Growth (UACC-62; Log10 Concentration -4.0 Molar): -93% | Percent Growth (UACC-62; Log10 Concentration -5.0 Molar): -53% | Percent Growth (UACC-62; Log10 Concentration -6.0 Molar): 92% | Percent Growth (UACC-62; Log10 Concentration -7.0 Molar): 93% | Percent Growth (UACC-62; Log10 Concentration -8.0 Molar): 89% | GI50 (OVCAR-5; Homo sapiens): 11 µM | CC50 (OVCAR-5; [3]): 54.2 µM | Percent Growth (OVCAR-5; Log10 Concentration -4.0 Molar): -88% | Percent Growth (OVCAR-5; Log10 Concentration -5.0 Molar): 56% | Percent Growth (OVCAR-5; Log10 Concentration -6.0 Molar): 93% | Percent Growth (OVCAR-5; Log10 Concentration -7.0 Molar): 96% | Percent Growth (OVCAR-5; Log10 Concentration -8.0 Molar): 95% | GI50 (NCI/ADR-RES; Homo sapiens): > 100 µM | CC50 (NCI/ADR-RES; [3]): > 100 µM | Percent Growth (NCI/ADR-RES; Log10 Concentration -4.0 Molar): 65% | Percent Growth (NCI/ADR-RES; Log10 Concentration -5.0 Molar): 86% | Percent Growth (NCI/ADR-RES; Log10 Concentration -6.0 Molar): 96% | Percent Growth (NCI/ADR-RES; Log10 Concentration -7.0 Molar): 101% | Percent Growth (NCI/ADR-RES; Log10 Concentration -8.0 Molar): 97% | GI50 (PC-3; Homo sapiens): 3.06 µM | CC50 (PC-3; [3]): 35.8 µM | Percent Growth (PC-3; Log10 Concentration -4.0 Molar): -95% | Percent Growth (PC-3; Log10 Concentration -5.0 Molar): 5% | Percent Growth (PC-3; Log10 Concentration -6.0 Molar): 92% | Percent Growth (PC-3; Log10 Concentration -7.0 Molar): 95% | Percent Growth (PC-3; Log10 Concentration -8.0 Molar): 93% | GI50 (DU-145; Homo sapiens): 3.21 µM | CC50 (DU-145; [3]): 32.2 µM | Percent Growth (DU-145; Log10 Concentration -4.0 Molar): -100% | Percent Growth (DU-145; Log10 Concentration -5.0 Molar): 2% | Percent Growth (DU-145; Log10 Concentration -6.0 Molar): 99% | Percent Growth (DU-145; Log10 Concentration -7.0 Molar): 106% | Percent Growth (DU-145; Log10 Concentration -8.0 Molar): 100% | GI50 (MCF7; Homo sapiens): 2.4 µM | CC50 (MCF7; [3]): 27.4 µM | Percent Growth (MCF7; Log10 Concentration -4.0 Molar): -97% | Percent Growth (MCF7; Log10 Concentration -5.0 Molar): -14% | Percent Growth (MCF7; Log10 Concentration -6.0 Molar): 89% | Percent Growth (MCF7; Log10 Concentration -7.0 Molar): 93% | Percent Growth (MCF7; Log10 Concentration -8.0 Molar): 93% | GI50 (BT-549; Homo sapiens): 2.83 µM | CC50 (BT-549; [3]): 31.1 µM | Percent Growth (BT-549; Log10 Concentration -4.0 Molar): -100% | Percent Growth (BT-549; Log10 Concentration -5.0 Molar): -1% | Percent Growth (BT-549; Log10 Concentration -6.0 Molar): 92% | Percent Growth (BT-549; Log10 Concentration -7.0 Molar): 105% | Percent Growth (BT-549; Log10 Concentration -8.0 Molar): 94% | GI% (HCT-116): 99.70% | GI% (HT29 [2]): 95.46% | GI% (KM12): 96.31%
